Laboratory results from US11365183B2, “Eicosanoid derivatives” (MAX-DELBRUECK-CENTRUM FUER MOLEKULARE MEDIZIN, priority 2009, dated 2022).
Entries after “also recorded” stand apart in the source; their conditions may differ.

How the values were obtained:
[1] = tested on: neonatal rat cardiomyocytes (NRCMs); test: Chronotropic effect on spontaneous beating rate of cultured neonatal rat cardiomyocytes (identification of agonists); type: cell-based; details: for agonistic / chronotropic effect on NRCMs, in words: compound alone; for agonistic / chronotropic effect on NRCMs, in words / chronotropic effect (Δ beats/min), mean±SE: 30 nM, incubation time 5 min; for chronotropic effect (Δ beats/min), mean±SE: NRCM clusters
Excerpt: This negative chronotropic effect reflects the capacity of the analogs to interact with and to activate a G-protein coupled receptor or other primary cellular targets that reduce the contractility of cardiomyocytes under basal and stress-induced conditions.
The compounds included EPA and 17,18-EETeTr (compounds 01 and 02; purchased from Cayman Chemical) as well as all but one (compound 16) of the analogs synthesized as described in examples 1-24. The R,S— and S,R-enantiomers of 17,18-EETeTr (compounds 03 and 04) were prepared resolving the racemic mixture (compound 02) by means of chiral-phase HPLC as described previously (Barbosa-Sicard E, Markovic M, Honeck H, Christ B, Muller D N, Schunck W H. Biochem Biophys Res Commun. 2005 Apr. 22; 329(4):1275-81). Before use, the compounds to be tested were prepared as 1000-fold stock solutions in ethanol.
Isolation and cultivation of NRCMs were performed as described previously (Wallukat, G; Wollenberger, A. Biomed Biochim Acta. 1987; 78:634-639; Wallukat G, Homuth V, Fischer T, Lindschau C, Horstkamp B, Jupner A, Baur E, Nissen E, Vetter K, Neichel D, Dudenhausen J W, Haller H, Luft F C. J Clin Invest. 1999; 103: 945-952). Briefly, neonatal Wistar rats (1-2 days old) were killed in conformity to the recommendations of the Community of Health Service of the City of Berlin and the cardiomyocytes were dissociated from the minced ventricles with a 0.2% solution of crude trypsin. The isolated cells were then cultured as monolayers on the bottom (12.5 cm^2) of Falcon flasks in 2.5 ml of Halle S M 20-I medium equilibrated with humidified air. The medium contained 10% heat-inactivated FCS and 2 μmol/l fluoro-deoxyuridine (Serva, Heidelberg, Germany), the latter to prevent proliferation of non-muscle cells. The NRCMs (2.4×10^6 cells/flask) were cultured at 37° C. in an incubator. After 5 to 7 days, the NRCMs formed spontaneously beating cell clusters. […] On the day of the experiment, the culture medium was replaced by 2.0 ml fresh serum-containing medium. Two hours later, the beating rates were monitored at 37° C. using an inverted microscope equipped with a heating stage. To determine the basal rate, 6 to 8 individual clusters were selected and the number of contractions was counted for 15 sec. After that, the compound to be tested was added to the culture and the beating rate of the same clusters was monitored 5 min later again. Based on the difference between the basal and compound-induced beating rate of the individual clusters, the chronotropic effects (Δ beats/min) were calculated and are given as mean±SE values. N refers to the number of clusters monitored which originated, in general, from at least three independent NRCM cultures.
This effect was fully expressed using an EPA concentration of 3.3 μM and an incubation time of 30 min. In contrast, 17,18-EETeTr (C02) produced the same effect almost immediately and already in the low nanomolar range (EC50 of 1-2 nM, data not shown). To compare the activity of 17,18-EETeTr with that of its synthetic analogs, all these compounds were tested at a final concentration of 30 nM and using an incubation time of 5 min.

[2] = tested on: neonatal rat cardiomyocytes (NRCMs); test: Antagonism of the negative chronotropic effect of agonists in NRCMs (identification of antagonists); type: cell-based; details: for inhibition of the agonistic effect of compound C4: 5 min preincubation, C4 and potential antagonist each 30 nM
Protocol: These antagonists were selected based on their capacity to abolish the negative chronotropic effects of EPA, 17,18-EETeTr and their synthetic agonists on the contractility of neonatal rat cardiomyocytes.
Potential antagonists included compounds C1, C3, C5, C6, C7, and C8, which were synthesized as described above in the corresponding examples.
The bioassay was performed with NRCMs as described in example 25. In the first series of experiments, compound C4 was used as the agonist and its effect was determined after preincubating the cultured NRCMc for 5 min with one of the potential antagonists. Both C4 and the potential antagonist were used at a final concentration of 30 nM.

[3] = tested on: neonatal rat cardiomyocytes (NRCMs); test: NRCM bioassay with pharmacological inhibitors (mechanism of cellular action); type: cell-based; details: for inhibition of the negative chronotropic effects of EPA, 17,18-EETeTr and C13: 5 min preincubation, 11,12-EET 30 nM, C3, AH6089 10 μM, EPA 3.3 μM, 17,18-EETeTr 30 nM, C13 30 nM; for inhibition of the negative chronotropic effects of EPA, 17,18-EETeTr and C13 / blocking of the positive chronotropic effect of butaprost: calphostin C 100 nM, H89 1 μM; for blocking of the positive chronotropic effect of butaprost: butaprost 100 nM, AH6089 10 μM
Protocol: The bioassay with NRCMs was performed as described in examples 25 and 26. […] The cultured NRCMs were preincubated without or with one of the compounds indicated in FIG. 4 for 5 min before the effect of the following agonists was determined: EPA (3.3 μM), 17,18-EETeTr (30 nM) or C13 (30 nM). In some experiments, the NRCMs were stimulated with a selective EP2 prostanoid receptor agonist (butaprost from Sigma-Aldrich; used at a final concentration of 100 nM) to provide a control for the effect of certain inhibitors.

[4] = tested on: rat model of myocardial infarction; test: Anti-arrhythmic effect in rat model of myocardial infarction (LAD ligation); type: in vivo; details: male Wistar rats
Protocol: Study design: To gain insight into the in-vivo effects of synthetic 17,18-EETeTr-agonists, myocardial infarction studies were performed in male Wistar rats. Briefly, rats weighing 220-250 g were randomized to receive an i.v. bolus of compound C17 (100 μg in 300 μl 0.9% NaCl) or only 300 μl 0.9% NaCl as vehicle control two hours before induction of myocardial infarction. For safe bolus application, animals were mildly anesthetized using isoflorane. Two hours after bolus application, animals were re-anesthetized with a mixture of ketamine and xylazine (i.v.). Continuous monitoring of the surface-ECG was started (EPTracer, Netherlands) and maintained until the end of the study. After recording of the basal ECG, myocardial infarction was induced by ligation of the left anterior descending artery (LAD). One hour after myocardial infarction animals were sacrificed and organ harvested. Samples from urine, blood, liver, kidney and heart were stored for further analysis.
Method of arrhythmia analysis: Ventricular tachycardia burden was calculated as the sum of all arrhythmic events originating from the ventricular myocardium, which were observed within the first hour after induction of myocardial infarction. In order to quantify not only the frequency but also the severity of the ventricular arrhythmias, an arrhythmia-severity-score was calculated. This score was calculated as the sum of the number of different arrhythmia events (PVC, couplet, triplet, VT<1.5 sec, VT>=1.5 sec), each class factorized by an increasing severity index of 1-5 (e.g. PVC×1, couplets×2, . . . , VT>=1.5 sec×5).

## CCC1OC1C/C=C\CCCC/C=C\CCCCCCC(=O)O (centres unmarked) [Compound C3, (8Z,14Z)-16-(3-Ethyloxirane-2-yl)hexadeca-8,14-dienoic Acid]
[1]
  agonistic / chronotropic effect on NRCMs, in words: did not exert any significant effect
[2]
  inhibition of the agonistic effect of compound C4: significantly inhibited
[2]; antagonist 30 nM, EPA 3.3 μM
  effect on the negative chronotropic effect of EPA: abolished
[2]; antagonist 30 nM, EPA 3.3 μM, other agonists 30 nM each
  antagonistic effect against C4, EPA, 17,18-EETeTr, C2 and C13: highly potent antagonist
[2]; both analogs in equimolar concentrations (30 nM)
  effect on the negative chronotropic effect of C13: almost completely blocked
[3]
  inhibition of the negative chronotropic effects of EPA, 17,18-EETeTr and C13: strongly inhibited
  blocking of the positive chronotropic effect of butaprost: not

## CCCC(=O)NCCCC/C=C\CCCCCCCCCC(=O)O [Compound C12, 16-(Butyrylamino)hexadec-11(Z)-enoic acid]
[1]
  agonistic / chronotropic effect on NRCMs, in words: largely inactive
other
  melting point: 99.2 to 99.6 °C

## CCCCC/C=C\CC1OC1C/C=C\C/C=C\CCCC(=O)O (centres unmarked) [11,12-EET, 11,12-epoxyeicosatrienoic acid]
[3]
  inhibition of the negative chronotropic effects of EPA, 17,18-EETeTr and C13: strongly inhibited

## calphostin C
[3]
  inhibition of the negative chronotropic effects of EPA, 17,18-EETeTr and C13: strongly inhibited
  blocking of the positive chronotropic effect of butaprost: not

## CNC(=O)C(=O)NCCCC/C=C\CCCCCCCCCC(=O)O [Compound C13, 16-(2-(methylamino)-2-oxoacetamido)hexadac-11(Z)-enoic acid]
[1]
  chronotropic effect (Δ beats/min), mean±SE: −33.7±1.3 beats/min
  agonistic / chronotropic effect on NRCMs, in words: Agonists

## CCC1OC1CCCCCCC/C=C\CCCCCCC(=O)O (centres unmarked) [Compound C6, 16-[(Z)-3-Ethyloxiranyl]hexadec-8(Z)-enoic Acid]
[1]
  agonistic / chronotropic effect on NRCMs, in words: inactive when tested alone
[2]
  inhibition of the agonistic effect of compound C4: did not inhibit

## CCCC(=O)NC/C=C\CCCCCCCCCCCCC(=O)O [Compound C22, 16-Butyramidohexadec-14(Z)-enoic acid]
[1]
  agonistic / chronotropic effect on NRCMs, in words: positive chronotropic effect
other
  melting point: 72.7 to 73.1 °C

## CCNC(=O)NCCCC/C=C\CCCCCCCCCC(=O)NCC(=O)[O-].[Na+] [Compound C17, Sodium (Z)-2-(16-(3-Ethylureido)hexadec-11-enamido)acetate]
[1]
  agonistic / chronotropic effect on NRCMs, in words: Agonists
[4]; i.v. bolus 100 μg
  side effects of bolus injection: did not induce any obvious negative side effects
[4]; i.v. bolus 100 μg two hours before LAD ligation, first hour after infarction, n=5
  ventricular tachycardia burden: 7526.2±5664.3 ms/h
[4]; i.v. bolus 100 μg two hours before LAD ligation, n=5
  arrhythmia severity score: 125±25 arbitrary units

## CC/C=C\C/C=C\C/C=C\C/C=C\C/C=C\CCCC(=O)O [EPA, eicosapentaenoic acid, reference compound]
[1]; NRCM cultures
  concentration resulting in a progressive reduction of the beating rate: above 1 μM
[1]; incubation time of 30 min
  concentration at which the reduction of the beating rate was fully expressed: 3.3 µM

## CCC1OC1CCCC/C=C\CCCCCCCCCC(=O)O (centres unmarked) [Compound C4, 16-[(Z)-3-Ethyloxiranyl]hexadec-11(Z)-enoic Acid]
[1]
  chronotropic effect (Δ beats/min), mean±SE: −18.3±1.5 beats/min
  agonistic / chronotropic effect on NRCMs, in words: Agonists; also recorded: agonistic effects

## CCC1OC1CCCC/C=C\CCCC/C=C\CCCC(=O)O (centres unmarked) [Compound C2, (5Z,11Z)-16-(3-Ethyloxirane-2-yl)hexadeca-5,11-dienoic acid]
[1]
  agonistic / chronotropic effect on NRCMs, in words: Agonists

## O=S(=O)(NCCNC/C=C/c1ccc(Br)cc1)c1cccc2cnccc12 [Compound H89]
[3]
  inhibition of the negative chronotropic effects of EPA, 17,18-EETeTr and C13: not affected
  blocking of the positive chronotropic effect of butaprost: blocked

## CCC1OC1CCCCCCCCCCCCCCCC(=O)O (centres unmarked) [Compound C8, 16-[(Z)-3-Ethyloxiranyl]hexadecanoic Acid]
[1]
  agonistic / chronotropic effect on NRCMs, in words: inactive when tested alone
[2]
  inhibition of the agonistic effect of compound C4: did not inhibit
other
  melting point: 62.1 to 62.5 °C

## CCC1OC1C/C=C\CCCCCCCCCCCCC(=O)O (centres unmarked) [Compound C5, 16-[(Z)-3-Ethyloxiranyl]hexadec-14(Z)-enoic Acid]
[1]
  agonistic / chronotropic effect on NRCMs, in words: no effect; also recorded: did not exert any significant effect
[2]
  inhibition of the agonistic effect of compound C4: significantly inhibited

## CCNC(=O)NCCCC/C=C\CCCCCCCCCC(=O)OCCOCCOCCO [Compound C18, 2-(2-(2-Hydroxyethoxy)ethoxy)ethyl 16-(3-ethylureido)hexadec-11 (Z)-enoate]
[1]
  agonistic / chronotropic effect on NRCMs, in words: Agonists

## CCC1OC1CCCCCCCCCC/C=C\CCCC(=O)O (centres unmarked) [Compound C7, 16-[(Z)-3-Ethyloxiranyl]hexadec-5(Z)-enoic Acid]
[1]
  agonistic / chronotropic effect on NRCMs, in words: inactive when tested alone
[2]
  inhibition of the agonistic effect of compound C4: did not inhibit

## CCC1OC1C/C=C\CCCCCCC/C=C\CCCC(=O)O (centres unmarked) [Compound C1, (5Z,14Z)-16-(3-Ethyloxirane-2-yl)hexadeca-5,14-dienoic acid]
[1]
  agonistic / chronotropic effect on NRCMs, in words: inactive when tested alone
[2]
  inhibition of the agonistic effect of compound C4: did not inhibit

## CCC1OC1C/C=C/C/C=C/C/C=C/C/C=C/CCCC(=O)O (centres unmarked) [17,18-EETeTr, reference compound]
[1]
  chronotropic effect (Δ beats/min), mean±SE: −22.5±0.8 beats/min
  agonistic / chronotropic effect on NRCMs, in words: acted as agonist
[1]; NRCMs, effect almost immediate, data not shown, read-out: EC50 of reduction of the beating rate
  EC50: 1 to 2 nM

## CCCCNC(=O)CCC/C=C\CCCCCCCCCC(=O)O [Compound C24, 16-(Butylamino)-16-oxohexadec-11 (Z)-enoic acid]
[1]
  agonistic / chronotropic effect on NRCMs, in words: Agonists; also recorded: maintain
other
  melting point: 78.2 to 78.8 °C

## CC(C)Oc1ccc2c(=O)c3cc(C(=O)O)ccc3oc2c1 [AH6089]
[3]
  inhibition of the negative chronotropic effects of EPA, 17,18-EETeTr and C13: strongly inhibited
  blocking of the positive chronotropic effect of butaprost: blocked

## CCCC1([C@H](O)C/C=C/[C@H]2[C@H](O)CC(=O)[C@@H]2CCCCCCC(=O)OC)CCC1 [butaprost]
[3]; 100 nM
  chronotropic effect on NRCMs: positive chronotropic effect
